Positions of bridges follow the written chain, without caps; N, C: chain ends. No end group written: not given here. *: point of attachment. DOTA = O=C(O)CN1CCN(CC(=O)O)CCN(CC(=O)*)CCN(CC(=O)O)CC1

Assay [1] has as its system acute pulmonary aspergillosis. As to the kind of experiment: μ-PET imaging of mice with acute pulmonary aspergillosis and normal mice. The format is in vivo. The settings on record: μ-PET at 30 and 90 minutes, i.v. approx. 200 μCi per mouse, not seen in normal mice. On the procedure: FIG. 5A illustrates μ-PET images of mice injected with the ^68Ga-labeled peptide of FIG. 4. […] Arrows indicate accumulated imaging agent.
Mice weighing approximately 20 g each were injected intravenously with the imaging agent of FIG. 4 to provide radioisotope at a level of approximately 200 μCi per mouse. μ-PET imaging was performed at 30 and 90 minutes after injection. Control mice had no fungal infection, while infected mice had acute pulmonary aspergillosis. μ-PET images of normal and infected mice are shown in FIG. 5A. Arrows in FIG. 5A indicate the accumulated radiotracer.

Assay [2] concerns Aspergillus. As to the kind of experiment: autoradiography and GMS histology of excised lung slices. The assay is classed as in vivo, mice. On the procedure: FIG. 5B illustrates autoradiography of the lungs of mice injected with the ^68Ga-labeled peptide of FIG. 4.
FIG. 6 illustrates histology and autoradiography of excised lung tissue from a mouse injected with Ga-68-labeled peptide of FIG. 4. The mouse had acute pulmonary aspergillosis.
Lungs were removed from the mice after the 90 minute imaging session and snap frozen, then cut into 20 μm slices. These slices were air-dried and exposed to a phosphors screen. The screen was exposed for 10 minutes.
To confirm that tissue labeled with the imaging agent was actually infected with Aspergillus, histology of lung tissue labeled by the imaging agent in an infected mouse was performed. The corresponding gamma scintogram and histology data are show in FIG. 6. […] Note the black-stained organisms correlated with distribution of radioactivity in autoradiography (lower left image) of excised lung tissue from a mouse injected with Ga-68-labeled peptide of FIG. 4.

The subject of assay [3] is acute pulmonary aspergillosis. The settings on record: i.v. approx. 80 μCi per mouse. On the procedure:
FIG. 2 illustrates gamma scintography of mice injected with the ^111In-labeled peptide of FIG. 1. […] Arrows indicate radiotracer in the lung.
Gamma scintography was performed at 30 and 120 minutes after injection. […] Experiments were performed 1 to 2 days after infection. The same mouse is shown for each test type at 30 and 120 minutes. Arrows in FIG. 2 indicate the accumulated radiotracer. Radiotracer accumulation in the lungs of the control mouse was not visible at 120 minutes after injection. Increased radiotracer could be seen as little as 5 minutes after injection.

Assay [4] has as its system hyphae of Aspergillus. As to conditions: Lionakis et al. 2005; cited from earlier work.
Assay [5] relates to hyphae of Rhizopus. The settings on record: Lionakis et al. 2005; cited from earlier work.

Consider “^68Ga-DOTA-CGGRLGPFC ({DOTA}-CGGRLGPFC; not fully specified (bridges); also: 68Ga chelated by DOTA, cyclic, type of ring bond not given here) [imaging agent of FIG. 4]”, for which the “radiotracer accumulation in the lungs of infected mice” value in assay [1] is “can be clearly seen”. For the same substance, in assay [2] (autoradiography of 20 μm slices, lungs removed after the 90 minute imaging session, infected mouse), the “radioactivity in lung slices of the infected mouse” value was “Heterogeneous distribution of radioactivity”. Also, in assay [2] (autoradiography of 20 μm slices, lungs removed after the 90 minute imaging session, normal mouse), the “radioactivity in lung slices of the normal mouse” value is recorded as “Little radioactivity”. Also, in assay [2] (excised lung tissue of an infected mouse, FIG. 6), the “relation of GMS-stained Aspergillus organisms to distribution of radioactivity in autoradiography” value was “correlated”.

For the substance “^111In-DTPA-Benzyl-NH-Succinic Acid-CGGRLGPFC [imaging agent of FIG. 1]”, the “radiotracer accumulation in the lungs of the control mouse” value in assay [3] (control mouse without fungal infection, 120 minutes after injection) was “not visible”. Also, the “time after injection at which increased radiotracer could be seen” value in assay [3] (gamma scintography) came out at 5 min.

For c(CWGHSRDEC) (disulfide 1-9 (inferred)), the “binding in vitro to the hyphae of Aspergillus” value in assay [4] is listed as “bind in vitro”. In assay [5], the “binding in vitro to the hyphae of Rhizopus” value is on record as “bind in vitro”.

Turning to c(CGGRLGPFC) (disulfide 1-9 (inferred)), the “binding in vitro to the hyphae of Aspergillus” value in assay [4] is given as “bind in vitro”. The “binding in vitro to the hyphae of Rhizopus” value in assay [5] is listed as “bind in vitro”.

(Values after US20100034739A1, “Fungus-Specific Imaging Agents” (priority 2006, published 2010).)
